The results in this text go back to PMC6882492, “Synthesis and biological evaluation of novel thienopyrimidine derivatives as diacylglycerol acyltransferase 1 (DGAT-1) inhibitors” (Journal of Enzyme Inhibition and Medicinal Chemistry, 2019).

Molecules are shown by their SMILES.

One data set concerns the target T1, CYP1A2 (Homo sapiens, UniProt P05177).
T1 sequence (P05177 1-516): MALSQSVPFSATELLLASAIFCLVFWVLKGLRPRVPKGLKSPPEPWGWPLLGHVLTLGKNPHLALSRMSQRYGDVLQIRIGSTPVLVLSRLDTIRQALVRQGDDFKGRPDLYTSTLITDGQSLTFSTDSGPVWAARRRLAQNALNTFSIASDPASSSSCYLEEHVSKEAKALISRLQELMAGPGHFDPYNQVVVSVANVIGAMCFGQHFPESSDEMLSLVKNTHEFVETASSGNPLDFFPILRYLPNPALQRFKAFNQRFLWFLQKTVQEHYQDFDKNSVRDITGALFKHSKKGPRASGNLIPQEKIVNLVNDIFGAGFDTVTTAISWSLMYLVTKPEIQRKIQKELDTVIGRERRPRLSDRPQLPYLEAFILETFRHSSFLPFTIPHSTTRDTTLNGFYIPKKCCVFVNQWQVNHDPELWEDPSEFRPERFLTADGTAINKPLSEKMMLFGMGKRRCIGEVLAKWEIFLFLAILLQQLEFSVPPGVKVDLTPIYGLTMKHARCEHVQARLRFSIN
Briefly: CYP inhibition assay CYP1A2. Format: in vitro ADME. The settings on record: fluorescence detection method; read-out: CYPs enzyme inhibition, IC50, CYP1A2.

Another data set concerns the target CYP2D6 (Homo sapiens, UniProt P10635). Description: CYP inhibition assay CYP2D6. Format: in vitro ADME. Particulars: fluorescence detection method; read-out: CYPs enzyme inhibition, IC50, CYP2D6.
Data set [1] can be described thus: In vitro microsomal stability, human. Particulars: human liver microsomes, 5 μM, 60 min. Format: in vitro ADME.
The target of a further data set is CYP2C19 (Homo sapiens, UniProt P33261). Briefly: CYP inhibition assay CYP2C19. Format: in vitro ADME. Particulars: fluorescence detection method; read-out: CYPs enzyme inhibition, IC50, CYP2C19.
Chain of CYP2C19 (P33261 whole entry): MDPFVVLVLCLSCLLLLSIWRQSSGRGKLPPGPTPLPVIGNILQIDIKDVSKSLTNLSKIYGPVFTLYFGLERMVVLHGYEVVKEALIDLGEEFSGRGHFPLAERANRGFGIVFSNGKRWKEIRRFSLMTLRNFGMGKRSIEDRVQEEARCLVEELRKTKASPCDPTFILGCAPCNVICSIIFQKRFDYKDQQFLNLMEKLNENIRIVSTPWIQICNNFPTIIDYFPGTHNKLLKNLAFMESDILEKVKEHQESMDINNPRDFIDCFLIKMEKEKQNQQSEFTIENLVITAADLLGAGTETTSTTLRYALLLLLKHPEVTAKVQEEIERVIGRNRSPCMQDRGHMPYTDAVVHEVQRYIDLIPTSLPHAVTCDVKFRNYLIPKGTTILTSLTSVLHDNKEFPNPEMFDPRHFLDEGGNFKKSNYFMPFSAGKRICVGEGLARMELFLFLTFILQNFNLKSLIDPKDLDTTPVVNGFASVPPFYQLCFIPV
A further data set deals with T2, hDGAT1 (Homo sapiens, UniProt O75907).
T2 sequence (O75907 1-488): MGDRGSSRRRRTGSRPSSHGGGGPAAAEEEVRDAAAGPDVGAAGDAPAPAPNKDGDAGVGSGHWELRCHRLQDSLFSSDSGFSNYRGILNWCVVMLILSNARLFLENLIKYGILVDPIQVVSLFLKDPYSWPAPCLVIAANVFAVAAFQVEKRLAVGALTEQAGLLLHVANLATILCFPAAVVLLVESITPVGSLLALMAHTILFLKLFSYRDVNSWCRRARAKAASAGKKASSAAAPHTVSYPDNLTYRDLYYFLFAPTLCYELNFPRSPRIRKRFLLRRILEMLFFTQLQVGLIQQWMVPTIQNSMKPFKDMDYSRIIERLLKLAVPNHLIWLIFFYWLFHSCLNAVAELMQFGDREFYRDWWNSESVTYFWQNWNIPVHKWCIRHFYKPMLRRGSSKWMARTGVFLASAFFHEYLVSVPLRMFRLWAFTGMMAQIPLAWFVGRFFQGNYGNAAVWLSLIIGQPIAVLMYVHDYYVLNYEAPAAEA
Briefly: Enzymatic assay hDGAT1. The data set is classed as biochemical. An excerpt:
ACATs have sequence homology to DGAT-1 and play essential roles in cholesterol homeostasis. 17b was not explored in the enzymatic assays due to its poor pharmacokinetic profile.

The subject of data set [2] is plasma TAG level. Description: Oral lipid tolerance test (OLTT), mouse. The data set is classed as in vivo. Particulars: ICR mice, 17a 3 mg/kg po before corn oil, n = 5. Here is the method: Male, Institute of Cancer Research (ICR) mice were obtained from OrientBio Inc. (Republic of Korea). ICR mice (8-weeks old, n = 5/group) fasted 16 h, received 5 mL/kg corn oil via oral administration (p.o.) 30 min after compound administration. Plasma was collected at different time points (0, 1, 2, and 4 h).
(§1) To determine in vivo efficacy, we evaluated the activity of 17a against serum TAG level induced by the oral administration of corn oil (oral lipid tolerance test, OLTT; Figures 3 and 4), since intestinal targeted DGAT-1 inhibition results in a reduced serum TAG level. 17a was orally administered to ICR mice at 3 mg/kg or to dogs at 1 mg/kg before administration of corn oil.
Figure 3. Effect of 17a in the oral lipid tolerance test (n = 5, ***p < .001). Serum TG (or TAG) concentration was measured before and 1, 2, and 4 h after oral administration of corn oil in ICR mice treated with 17a (3 mg/kg) or 2 (1 mg/kg). Vehicle for 2: 0.5% methylcellulose/0.5% Tween80 in distilled water, vehicle for 17a: 0.5% Tween80 in distilled water.

For another data set, the target named is CYP2C9 (Homo sapiens, UniProt P11712). Briefly: CYP inhibition assay CYP2C9. The settings on record: fluorescence detection method; read-out: CYPs enzyme inhibition, IC50, CYP2C9. Format: in vitro ADME.
Chain of CYP2C9 (P11712 whole entry): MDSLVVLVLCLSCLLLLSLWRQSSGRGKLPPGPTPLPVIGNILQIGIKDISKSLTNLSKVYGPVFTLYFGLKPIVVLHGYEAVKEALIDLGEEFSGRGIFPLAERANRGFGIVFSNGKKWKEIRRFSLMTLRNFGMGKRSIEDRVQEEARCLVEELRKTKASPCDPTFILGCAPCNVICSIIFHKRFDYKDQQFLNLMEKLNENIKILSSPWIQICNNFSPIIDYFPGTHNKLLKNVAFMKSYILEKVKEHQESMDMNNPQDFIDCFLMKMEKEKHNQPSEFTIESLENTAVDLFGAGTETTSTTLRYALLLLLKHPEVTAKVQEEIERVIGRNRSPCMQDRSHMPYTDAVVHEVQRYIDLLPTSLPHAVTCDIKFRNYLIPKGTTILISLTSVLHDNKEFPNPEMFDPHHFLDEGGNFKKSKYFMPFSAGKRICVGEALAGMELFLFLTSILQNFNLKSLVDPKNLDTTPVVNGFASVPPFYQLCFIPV
Data set [3] in a line: Tissue distribution in mice. The data set is classed as in vivo. Particulars: ICR mice, 30 mg/kg oral, n = 3. The method, then:
In addition, tissue distribution of 17a was investigated. 17a was orally administered to mice at 30 mg/kg, and 2 was administrated as a positive control (Figure 5). […] Significant activity of 17a in the OLTT appeared to result from high concentration in the small intestine, even though bioavailability of 17a was not great in mice.
Figure 5. Tissue distribution of 17a in mice. 17a and 2 were orally administered to ICR mice at 30 mg/kg (n = 3). (a) AUC values of 17a and 2 in indicated tissues. […] Data represent mean value. (b) Tissue-to-plasma (T/P) ratio of 17a and 2. S.I.: small intestine, L.I.: large intestine.

The nature of data set [4]: Pharmacokinetic profile in dog. The data set is classed as in vivo.
For data set [5], the system named is plasma TAG level. Briefly: Oral lipid tolerance test (OLTT), dog. Format: in vivo, Beagle dogs. The settings on record: dogs, 17a 1 mg/kg po, n = 2. The method, then:
Beagle dogs (9 months old, n = 2/group) were obtained from Woojung Bio Inc. (Republic of Korea) were fasted for 16 h and received heavy cream (2.7 mL/kg), glucose (1 g/kg), water (5.3 mL/kg), and acetaminophen (20 mg/kg p.o.) 1 h after compound administration. Blood samples were collected at –0.5, 0, 1, 2, and 4 h.
as §1
Figure 4. Effect of 17a in a canine oral lipid tolerance test (n = 2, *p < .05; ***p < .001). The dog was treated with 17a (po. 1 mg/kg) or 2 (po. 1 mg/kg) before oral administration of corn oil. Vehicle for 2: 0.5% methylcellulose/0.5% Tween80 in distilled water, vehicle for 17a: 0.5% Tween80 in distilled water.

Data set [6] is described as follows: In vitro microsomal stability, dog. Format: in vitro ADME. The settings on record: dog liver microsomes, 5 μM, 60 min.
The nature of data set [7]: In vitro microsomal stability, rat. The data set is classed as in vitro ADME. The settings on record: rat liver microsomes, 5 μM, 60 min. A general note: Microsomes from liver hold many membrane-bound enzymes, among them those of drug oxidation.

Chain of CYP2D6 (P10635 whole entry): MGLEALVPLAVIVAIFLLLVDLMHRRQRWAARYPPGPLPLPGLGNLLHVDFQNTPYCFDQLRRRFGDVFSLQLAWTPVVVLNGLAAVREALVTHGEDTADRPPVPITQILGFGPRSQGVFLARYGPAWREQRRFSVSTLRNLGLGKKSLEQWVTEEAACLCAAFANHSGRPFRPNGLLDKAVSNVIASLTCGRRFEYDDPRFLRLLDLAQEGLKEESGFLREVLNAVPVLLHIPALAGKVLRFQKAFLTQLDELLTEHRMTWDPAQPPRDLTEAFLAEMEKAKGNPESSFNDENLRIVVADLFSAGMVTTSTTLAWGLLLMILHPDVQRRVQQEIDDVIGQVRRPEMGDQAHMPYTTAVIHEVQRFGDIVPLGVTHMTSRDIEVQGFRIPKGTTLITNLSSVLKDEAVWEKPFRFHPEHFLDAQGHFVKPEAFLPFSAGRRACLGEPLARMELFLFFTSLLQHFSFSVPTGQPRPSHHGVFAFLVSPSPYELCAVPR

One may read the IC50 as the concentration at which inhibition is half-maximal. Broadly, the half-life is the time in which the quantity being followed falls by half. A lower half-life goes with rapid decline. By bioavailability is commonly meant the share of a dose that reaches the circulation, judged against a reference dose that is usually intravenous. Low readings indicate little systemic uptake, high ones much systemic uptake. By AUC is commonly meant concentration integrated over time. Take `O=C([O-])C[C@H]1CC[C@@H](c2csc3c(-c4ccc(NC(=O)Nc5cccc(Cl)c5)cc4)ncnc32)CC1.[Na+]` [Compound 17a, Sodium cis-2–(4–(4-(4-(3–(3-chlorophenyl)ureido)phenyl)thieno[3,2-d]pyrimidin-7-yl)cyclohexyl)acetate]: the half-maximal inhibitory concentration (IC50) at CYP1A2 was 10.6 µM; at CYP2D6 it was 8.7 µM; at CYP2C19, above 20 µM; against hDGAT1, 0.061 µM; on CYP2C9, 2.9 µM. The “Microsomal stability, remaining percent” value in [1] is 94%; in data set [6], 82%; in [7], 87%. Further, in the data set on plasma TAG level [2], the “Reduction of plasma TAG level in OLTT” value is given as “significant activity, as potent as compound 2”. The “Tissue distribution (concentration levels in tissues)” value in data set [3] was “in the liver and small intestine were much higher than in other tissues”. The same compound came in with a Cl in [4] (1 mg/kg iv, 3 mg/kg po) of 6.7 ± 1.7 mL/min/kg. In data set [4] (in vivo, 3 mg/kg po), this compound gave a half-life of 3.6 ± 0.7 h. Moreover, the bioavailability in data set [4] (in vivo, 3 mg/kg po vs 1 mg/kg iv) is 53%. In data set [4] (in vivo, 3 mg/kg po, read-out: AUC 0 ∼ 24), the AUC was 8240 ± 2300 ng·h/mL. In the data set on plasma TAG level [5], the “Reduction of TAG in OLTT” value is on record as “significant reduction of TAG”.
